Measured values as given in patent publication US20250281453A1, “COMBINATION THERAPIES COMPRISING QTX125” (QUIMATRYX, S.L., priority 2022, published 2025).

Legend:
[1] = test system: HCT-116 colonic cancer cells; assay: Cell viability, ALAMAR blue assay, monotherapy; format: cell-based
Description: (§1) In brief, HCT-116, MiaPaCa-2 and Panc-1 cells were thawed in high glucose DMEM (Sigma D5796) with 10% heat-inactivated Foetal Calf Serum (FCS) (PAA, A15-101)). Hep-G2 and SK-Hep1 cells were thawed in Minimum Essential Media (MEM) (Sigma M2279) with 1% non-essential amino acids (Sigma M7145), 2 mM Glutamine (Sigma G7513) and 10% FCS. SK-OV-3 cells were thawed in McCoy's 5A medium (Sigma, M8403) with 15% FCS. All cells were passaged by washing once in cation-free dPBS (Sigma, D1408), and incubated for 3 minutes with trypsin ([0.5 μg/ml]/EDTA [0.2 μg/ml] (Sigma, T4174) in dPBS). Passage was completed at 37° C., and cells were transferred to the appropriate media. Prior to seeding at defined cell density, cells were recovered in medium, centrifuged and resuspended for counting.
(§2) To prepare cells for viability assays, cells were transferred into 96 well tissue culture plates (Cultek), and resuspended in 100 µL at the following densities: 10,000 cells/well (Hep-G2 and MiaPaCa-2), 5000 cells/well (Panc-1 and SK-OV-3) or 3000 cells/well (HCT-116). Following 24 hours of incubation, media was removed and replaced with 100 µL media spiked with QTX125 and the test chemotherapeutic agents. Stock solutions for the agents used in this study are shown below in Table 1. Cells were incubated for a further 72 hours before cell viability was assessed using both ALAMAR® and hexosaminidase assays.
(§3) For the ALAMAR® blue assay, media containing QTX125 and the test chemotherapeutic agents was removed, and cells were stained using ALAMAR® blue (BioSource DAL 1100) for 4 hours at 37° C., following the manufacturer's instructions. Relative fluorescent intensity was measured using a Cytofluor® plate reader (Millipore) at 535/590 nm (Excitation/emission). This measure directly correlates with the number of viable cells present in each well.
(§4) A number of appropriate control samples were included. First, absorbance values measured in reagent ‘blank’ wells (containing cell culture medium and colorimetric agent only) were subtracted from ‘test’ sample-containing wells. ‘Blank’ absorbance values were routinely between 5 and 10% of the values recorded in test wells. Absorbance values recorded in test wells were then compared against wells containing (i) cells stimulated with QTX125 only; (ii) cells stimulated with sorafenib, gemcitabine or bortezomib only and/or (iii) unstimulated cells, as appropriate.
(§5) Control values were normalised to 100% and percentage (%) viability was calculated. Data were used to plot log dose-response curves using a sigmoid dose-response (variable slope) equation. EC50 values were obtained using Equation 1, where ‘X’ is the logarithmic concentration; ‘Y’ is the response output and it is assumed that Y starts at bottom of the graph and reaches the top with an overall sigmoid shape.
(§6) Prior to assessing the oncolytic efficacy of QTX125-containing combination therapies, the oncolytic effect of each test agent was assessed in isolation. Dose-response curves were produced by serial dilution (1:1), thereby allowing monotherapy EC50 values to be calculated.
(§7) Chemotherapeutic agents were added to wells at a starting concentration of 100 μM. However, it was quickly determined that it was not possible to use this range for all chemotherapeutic agents tested. An optimization study was therefore completed to identify suitable maximum (‘high’) doses for each agent and in each individual cell line.

[2] = test system: Hep-G2 hepatic cancer cells; assay: Cell viability, ALAMAR blue assay, monotherapy; format: cell-based
Description: as §1, §2, §3, §4, §5, §6, §7

[3] = test system: MiaPaCa-2 pancreatic cancer cells; assay: Cell viability, ALAMAR blue assay, monotherapy; format: cell-based
Description: as §1, §2, §3, §4, §5, §6, §7

[4] = test system: Panc-1 pancreatic cancer cells; assay: Cell viability, ALAMAR blue assay, monotherapy; format: cell-based
Description: as §1, §2, §3, §4, §5, §6, §7

[5] = test system: SK-OV-3 ovarian cancer cells; assay: Cell viability, ALAMAR blue assay, monotherapy; format: cell-based
Description: as §1, §2, §3, §4, §5, §6, §7

[6] = test system: HCT-116 colonic cancer cells; assay: Cell viability, hexosaminidase assay, monotherapy; format: cell-based
Description: as §1, §2
(§8) For the hexosaminidase assay, media containing QTX125 and the test chemotherapeutic agents was removed, and cells were washed once with PBS. 60 μL of substrate solution (containing: 7.5 mM p-nitrophenol-N-acetyl-beta-D-glucosamide [Sigma N-9376], 0.1 M sodium citrate, pH 5.0 and 0.25% Triton X-100) was added to each well and cells were incubated at 37° C. for at least 1 hour. Incubating cells in this manner causes the substrate solution to become bright yellow, at which point 90 μL of developer solution (containing 50 mM Glycine pH 10.4 and 5 mM EDTA) was added to each well. Absorbance at 410 nm was recorded using a plate reader.
as §4, §5, §6, §7

[7] = test system: Hep-G2 hepatic cancer cells; assay: Cell viability, hexosaminidase assay, monotherapy; format: cell-based
Description: as §1, §2, §8, §4, §5, §6, §7

[8] = test system: MiaPaCa-2 pancreatic cancer cells; assay: Cell viability, hexosaminidase assay, monotherapy; format: cell-based
Description: as §1, §2, §8, §4, §5, §6, §7

[9] = test system: Panc-1 pancreatic cancer cells; assay: Cell viability, hexosaminidase assay, monotherapy; format: cell-based
Description: as §1, §2, §8, §4, §5, §6, §7

[10] = test system: SK-OV-3 ovarian cancer cells; assay: Cell viability, hexosaminidase assay, monotherapy; format: cell-based
Description: as §1, §2, §8, §4, §5, §6, §7

[11] = test system: multiple sclerosis mice models; conditions: two different multiple sclerosis mice models; cited from earlier work
[12] = 72 hours of high-dose monotherapy (Table 2: QTX125 1, sorafenib 100, gemcitabine 10, bortezomib 1 μM)
[13] = Homo sapiens, 72 h, read-out: EC50 dose of monotherapy
[14] = 72 hours of high-dose monotherapy (Table 2: QTX125 5, sorafenib 100, gemcitabine 100, bortezomib 1 μM)
[15] = Homo sapiens, HepG2, 72 h, read-out: EC50 dose of monotherapy
[16] = 72 hours of high-dose monotherapy (Table 2: QTX125 100, sorafenib 100, gemcitabine 100, bortezomib 1 μM)
[17] = 72 hours of high-dose monotherapy (Table 2: QTX125 10, sorafenib 100, gemcitabine 10, bortezomib 1 μM)

- EC50 [1, 13]: 330 nM
- EC50 [2, 15]: 910 ± 200 nM
- EC50 ([3]; Homo sapiens, MIA PaCa-2, 72 h, 72 h, read-out: EC50 dose of monotherapy): 1790 ± 50 nM
- EC50 [4, 13]: 1400 ± 150 nM
- EC50 [5, 13]: 3000 ± 400 nM
- EC50 [6, 13]: 430 nM
- EC50 [7, 15]: 3300 ± 400 nM
- EC50 ([8]; Homo sapiens, MIA PaCa-2, 72 h, read-out: EC50 dose of monotherapy): 1500 ± 200 nM
- EC50 [9, 13]: 3600 ± 500 nM
- EC50 [10, 13]: 3600 ± 400 nM
Structure (SMILES): O=C(NO)c1ccc(CNC(=O)c2[nH]c(-c3ccc(O)cc3)cc2-c2ccoc2)cc1 [QTX125, 3-(3-Furyl)-N-{4-[(hydroxyamino)carbonyl]benzyl}-5-(4-hydroxyphenyl)-1 Hpyrrole-2-carboxamide]
- percentage (%) cell viabilities [1, 12]: 0.0%
- percentage (%) cell viabilities [2, 14]: 0.0%
- percentage (%) cell viabilities [3, 16]: 0.0%
- percentage (%) cell viabilities [4, 16]: 0.0%
- percentage (%) cell viabilities [5, 17]: 0.0%
- percentage (%) cell viabilities [6, 12]: 7.3%
- percentage (%) cell viabilities [7, 14]: 2.1%
- reduction of the population of viable cells ([7]; high-dose monotherapy, 72 hours): ~98%
- percentage (%) cell viabilities [8, 16]: 7.3%
- percentage (%) cell viabilities [9, 16]: 3.9%
- percentage (%) cell viabilities [10, 17]: 5.0%
- efficacy in multiple sclerosis mice models [11]: high efficacy
